# Laboratory results published in patent US11905522B2, “Treatment of diseases by liver expression of an enzyme which has a deoxyribonuclease (DNase) activity” (CLS THERAPEUTICS LIMITED, priority 2018, dated 2024).
# Read-outs that look alike come from different tables or passages of the source.
# B1: RhDNase I: recombinant human DNase I in Patutina, 2011 (protein, UniProt P24855 23-282, looked up)
# Deoxyribonuclease-1: LKIAAFNIQTFGETKMSNATLVSYIVQILSRYDIALVQEVRDSHLTAVGKLLDNLNQDAPDTYHYVVSEPLGRNSYKERYLFVYRPDQVSAVDSYYYDDGCEPCGNDTFNREPAIVRFFSRFTEVREFAIVPLHAAPGDAVAEIDALYDVYLDVQEKWGLEDVMLMGDFNAGCSYVRPSQWSSIRLWTSPTFQWLIPDSADTTATPTHCAYDRIVVAGMLLRGAVVPDSALPFNFQAAYGLSDQLAQAISDHYPVEVMLK
# B2: DNaseI: DNaseI used to treat GVHD in mice (Li, 2015) (protein, UniProt P24855 23-282, looked up)
# Deoxyribonuclease-1: LKIAAFNIQTFGETKMSNATLVSYIVQILSRYDIALVQEVRDSHLTAVGKLLDNLNQDAPDTYHYVVSEPLGRNSYKERYLFVYRPDQVSAVDSYYYDDGCEPCGNDTFNREPAIVRFFSRFTEVREFAIVPLHAAPGDAVAEIDALYDVYLDVQEKWGLEDVMLMGDFNAGCSYVRPSQWSSIRLWTSPTFQWLIPDSADTTATPTHCAYDRIVVAGMLLRGAVVPDSALPFNFQAAYGLSDQLAQAISDHYPVEVMLK
# B3: DNase I protein (wt): recombinant wild-type DNase I protein injected IV in Example 7 (protein, UniProt P24855 23-282, looked up)
# Deoxyribonuclease-1: LKIAAFNIQTFGETKMSNATLVSYIVQILSRYDIALVQEVRDSHLTAVGKLLDNLNQDAPDTYHYVVSEPLGRNSYKERYLFVYRPDQVSAVDSYYYDDGCEPCGNDTFNREPAIVRFFSRFTEVREFAIVPLHAAPGDAVAEIDALYDVYLDVQEKWGLEDVMLMGDFNAGCSYVRPSQWSSIRLWTSPTFQWLIPDSADTTATPTHCAYDRIVVAGMLLRGAVVPDSALPFNFQAAYGLSDQLAQAISDHYPVEVMLK
# How the values were obtained:
# [1] = Serum DNase I activity (ORG590), MIA PaCa-2 model; format: in vivo, BALB/c nude mice; conditions: day 35, regimen per Table 3 (rhDNaseI protein 50 mg/kg, Group 6)
# Protocol: Serum DNase I activity was measured using ORG590 (Orgentec) according to the manufacturer's protocol. Detection was performed using microplate photometer (Multiscan FC) at 450 nm with a correction wavelength of 620 nm. cfDNA in the liver tissue was quantified by immunohistochemistry (IHC) in liver paraffin slides using AC-30-10 mouse IgG DNA binding antibodies (Sigma) as primary antibodies and Novolink Polymer Detection Systems Novocastra (Leica Biosystems).
# [2] = tested on: cfDNA in the liver tissue; assay: cfDNA in liver tissue by immunohistochemistry, MIA PaCa-2 model; format: in vivo, BALB/c nude mice; conditions: day 35; vector given with gemcitabine (Group 2); gemcitabine alone (Group 7)
# Protocol: Detection was performed using microplate photometer (Multiscan FC) at 450 nm with a correction wavelength of 620 nm. cfDNA in the liver tissue was quantified by immunohistochemistry (IHC) in liver paraffin slides using AC-30-10 mouse IgG DNA binding antibodies (Sigma) as primary antibodies and Novolink Polymer Detection Systems Novocastra (Leica Biosystems).
# MIA PaCa-2 xenografts = conditions: vector 1.00 × 10^11 GC/kg IV single dose (Groups 2, 3), Gemcitabine 60 mg/kg IP BIW
# Protocol: 56 female BALB/c nude mice (IBCH RAN) of 6-8 weeks age and 18-22 g weight were used in experiment. The mice were kept in individual ventilation cages at controlled temperature and humidity with four animals in each cage. Each mouse was inoculated subcutaneously at the right flank with MIA PaCa-2 pancreatic tumor cells (1×10^7) in 0.2 ml of PBS supplemented with BD Matrigel (1:1) for tumor development. The treatments were started on day 17 after tumor inoculation when the average tumor size reached approximately 170 mm^3. Each group consisted of eight tumor-bearing mice.
# Tumor size was measured twice weekly in two dimensions using a caliper, and the volume was expressed in mm^3 using the formula: V=0.5 a×b^2 where a and b are the long and short diameters of the tumor, respectively. At the time of routine monitoring, the animals were checked daily for any effects of tumor growth and treatments on normal behavior such as mobility, food and water consumption by visual inspection only, loss or gain of body weight (measured twice weekly), eye/hair matting, and any other abnormal effects. On day 35, the study was terminated, the mice were humanely sacrificed by CO2, and blood was sampled from the central and hepatic veins. Liver tissues were also sampled and immersed into formalin for fixing.
# Circulating cfDNA = conditions: day 35; regimen per Table 3 (rhDNaseI protein 50 mg/kg, Group 6)
# Protocol: SYBR® Gold Nucleic Acid Gel Stain (Invitrogen) was diluted first at 1:1000 in dimethyl sulphoxide and then at 1:8 in phosphate-buffered saline. 10 μl of plasma samples were applied to 96-well plates. 40 μl of diluted SYBR® Gold was added to each well (final dilution 1:10,000) and fluorescence was measured with a 96 well fluorometer at an emission wavelength of 535 nm and an excitation wavelength of 485 nm.
# [3] = tested on: lung carcinoma and hepatoma metastatic disease; conditions: administered daily at 0.02-2.3 mg/kg; cited from earlier work
# GVHD = conditions: mouse, in vivo; cited from earlier work
# NLRP3 = assay: Brain NLRP3 inflammasome expression by RT-PCR, leaky gut rats; conditions: twice daily IV 50 mg/kg day 7 to day 12
# Protocol: Leaky gut was induced in 24 rats using a bacteriophage cocktail against Enterobacteriaceae, Staphylococcaceae, and Streptococcaceae families so as to induce microbiota diseases. […] Phages (1.5 mL, 1×10^6 plaque-forming units/mL of each phage cocktail) were added to drinking water according to the manufacturer's instruction and administered orally for 10 days. At day 7 of phage treatment, rats were randomized into 4 groups as follows: six rats received intrahepatic injection of 1.0×10^12 LVP in a volume of 200 μl; six rats received injection of 1.0×10^12 LVP in a volume of 200 μl into a thigh muscle; six rats received twice daily intravenous injections of recombinant DNase I protein at 50 mg/kg between day 7 and day 12. The remaining six rats were used as the untreated leaky gut control. An additional six healthy rats were used as a healthy control. […] Brain autopsies were collected to perform NLRP3 inflammasome expression analysis and 16S universal bacterial RNA gene quantification.
# NLRP3 expression was assessed by collection of 50 mg cortical tissue samples. RNA was isolated using the SV total RNA isolation system (Promega). Superscript III one-step RT-PCR system with platinum Taq DNA Polymerase (Invitrogen) was used for reverse transcriptase-PCR using 5′-[sequence]-3′ (SEQ ID NO: 11) as forward NLRP3 primer and 5′-[sequence]-3′ (SEQ ID NO: 12) as reverse NLRP3 primer. […]
# [4] = DNase activity in blood, bacteriophage-induced leaky gut rats; format: in vivo, Wistar rats; conditions: twice daily IV 50 mg/kg day 7 to day 12
# Protocol: At day 7 of phage treatment, rats were randomized into 4 groups as follows: six rats received intrahepatic injection of 1.0×10^12 LVP in a volume of 200 μl; six rats received injection of 1.0×10^12 LVP in a volume of 200 μl into a thigh muscle; six rats received twice daily intravenous injections of recombinant DNase I protein at 50 mg/kg between day 7 and day 12. The remaining six rats were used as the untreated leaky gut control. An additional six healthy rats were used as a healthy control. At day 12, all rats were sacrificed and blood samples were collected for measurement of the DNase activity in blood.
# Serum DNase I activity was measured using ORG590 (Orgentec) according to the manufacturer's protocol. Detection was performed using microplate photometer (Multiscan FC) at 450 nm with a correction wavelength of 620 nm.
# [5] = tested on: 16S universal bacterial RNA gene; assay: 16S universal bacterial RNA gene quantification in liver and brain, leaky gut rats; format: in vivo, Wistar rats; conditions: twice daily IV 50 mg/kg day 7 to day 12
molecule,measurement,setting,value
Nc1ccn([C@@H]2O[C@H](CO)[C@@H](O)C2(F)F)c(=O)n1 [Gemcitabine],Dnase activity in blood,[1]; central vein,1.15 mKuU/ml
same,DNase activity in hepatic vein,[1],1.05 mKuU/ml
same,"cfDNA in the liver (IHC microphotographs, FIG. 4)",[2],A large amount of cfDNA
same,mean tumor volume,MIA PaCa-2 xenografts; Day 17,170 ± 13 mm^3
same,mean tumor volume,MIA PaCa-2 xenografts; Day 21,164 ± 14 mm^3
same,mean tumor volume,MIA PaCa-2 xenografts; Day 24,197 ± 17 mm^3
same,mean tumor volume,MIA PaCa-2 xenografts; Day 28,246 ± 10 mm^3
same,mean tumor volume,MIA PaCa-2 xenografts; Day 31,220 ± 8 mm^3
same,mean tumor volume,MIA PaCa-2 xenografts; Day 35,264 ± 14 mm^3
same,Cell free DNA in blood,Circulating cfDNA,241 ± 11 ng/mL
B1,suppressed the development of metastatic disease,[3],60-90%
B2,treatment of GVHD in mice,GVHD,successful use
B3,Average ΔCt values for brain NLRP3 from RT-PCR,NLRP3,17.341
same,Dnase activity in blood,[4],7.15 mKuU/ml
same,"Average ΔCt values for universal bacterial 16S from RT-PCR, brain",[5],27.417
same,"Average ΔCt values for universal bacterial 16S from RT-PCR, liver",[5],25.752
